US6413782B1, “Methods of manufacturing high-throughput screening systems” (priority 1996, dated 2002)

Molecular target: β-galactosidase (Escherichia coli, UniProt P00722)
Test: Enzyme inhibitor screen in planar chip format (continuous flow, fluorogenic substrate FDG)
Type: biochemical
Settings: IPTG 200 mM in inhibitor well; β-Galactosidase 180 U/ml; substrate FDG 400 μM; 20 mM Tris pH 8.5; versus buffer control
Protocol: The numbers adjacent the channels represent the lengths of each channel in millimeters. Two voltage states were applied to the ports of the chip. […] A control experiment was also run in which buffer was placed into the inhibitor well.
Enzyme: β-Galactosidase (180 U/ml in 50 mM Tris/ 300 μg/ml BSA
Substrate: Fluorescein-digalactoside (FDG) 400 μM
Buffer: 20 mM Tris, pH 8.5
Enzyme and substrate were continually pumped through the main channel from their respective ports under both voltage states. Inhibitor or Buffer were delivered into the main channel alternately from their respective wells by alternating between voltage state 1 and voltage state 2. When no inhibitor was present at the detection end of the main channel, a base line level of fluorescent product was produced. […] FIG. 9B a superposition of the two data segments from FIG. 9A, directly comparing the inhibitor data with control (buffer) data.

Chain of β-galactosidase (P00722 2-1024): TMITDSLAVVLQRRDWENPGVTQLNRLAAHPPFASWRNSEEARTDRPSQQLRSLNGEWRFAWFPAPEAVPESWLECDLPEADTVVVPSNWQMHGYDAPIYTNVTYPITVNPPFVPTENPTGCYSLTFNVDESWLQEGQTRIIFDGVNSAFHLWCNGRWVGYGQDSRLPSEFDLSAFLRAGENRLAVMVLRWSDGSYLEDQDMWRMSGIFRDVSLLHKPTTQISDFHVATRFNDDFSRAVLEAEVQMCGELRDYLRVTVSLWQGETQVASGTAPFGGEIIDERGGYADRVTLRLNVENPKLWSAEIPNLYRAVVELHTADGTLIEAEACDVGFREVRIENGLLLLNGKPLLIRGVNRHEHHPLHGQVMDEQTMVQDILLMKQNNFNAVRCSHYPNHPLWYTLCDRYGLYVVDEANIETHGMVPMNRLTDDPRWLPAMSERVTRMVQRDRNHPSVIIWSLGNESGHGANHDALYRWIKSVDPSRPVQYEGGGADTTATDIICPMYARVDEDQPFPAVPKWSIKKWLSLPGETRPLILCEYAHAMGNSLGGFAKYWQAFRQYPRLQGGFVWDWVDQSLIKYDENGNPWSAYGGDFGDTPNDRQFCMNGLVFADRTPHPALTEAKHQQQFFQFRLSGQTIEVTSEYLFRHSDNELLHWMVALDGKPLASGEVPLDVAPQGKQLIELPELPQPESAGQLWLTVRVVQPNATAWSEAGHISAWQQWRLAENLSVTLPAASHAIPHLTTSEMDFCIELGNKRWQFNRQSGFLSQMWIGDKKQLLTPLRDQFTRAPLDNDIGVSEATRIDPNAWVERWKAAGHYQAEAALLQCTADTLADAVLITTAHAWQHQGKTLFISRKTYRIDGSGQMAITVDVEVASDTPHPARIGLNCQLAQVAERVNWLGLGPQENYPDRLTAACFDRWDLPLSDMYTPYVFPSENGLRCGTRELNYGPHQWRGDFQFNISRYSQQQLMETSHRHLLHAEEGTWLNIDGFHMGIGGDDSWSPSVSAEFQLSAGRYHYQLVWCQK

## CC(C)S[C@@H]1O[C@H](CO)[C@H](O)[C@H](O)[C@H]1O [IPTG]
  fluorescent signal upon introduction of inhibitor (inhibition of the enzyme/substrate interaction): greatly reduced
